Values after ≈ are worked out from the molar mass of the structure shown.
Experiments:
Format in all cases: physicochemical
[1] = in vitro dissolution test in MFD solution, dosed as oral powder for constitution; conditions: for AUC90 (area under the concentration-versus-time curve during the initial ninety minutes) / MDC90 (maximum dissolved concentration during the initial ninety minutes): MFD solution pH 6.5, 37° C., 200 μgA/mL dosed; for MDC90 (maximum dissolved concentration during the initial ninety minutes): pre-wetted with PBS/Methocel A/HPMCAS-H (OPC model)
Method: An in vitro dissolution test was performed to determine the dissolution performance of amorphous Compound A relative to crystalline Compound A. For this test, a sufficient amount of material was added to a microcentrifuge test tube so that the concentration of Compound A would have been 200 μgA/mL, if all of the compound had dissolved. The test was run in duplicate. First, 50 μL PBS containing 0.5 wt % Methocel A and 5 mg/mL HPMCAS-H was added to the sample in the tube and mixed using a vortex mixer, to model an oral powder for constitution dosage form. The tubes were placed in a 37° C. temperature-controlled chamber, and 1.8 mL PBS at pH 6.5 and 290 mOsm/kg, containing 7.3 mM sodium taurocholic acid and 1.4 mM of 1-palmitoyl-2-oleyl-sn-glycero-3-phosphocholine, was added to each respective tube. The samples were quickly mixed using a vortex mixer for about 60 seconds. The samples were centrifuged at 13,000 G at 37° C. for 1 minute. The resulting supernatant solution was then sampled and diluted 1:6 (by volume) with methanol and then analyzed by HPLC as described above. The contents of each tube were mixed on the vortex mixer and allowed to stand undisturbed at 37° C. until the next sample was taken. Samples were collected at 4, 10, 20, 40, 90, and 1200 minutes.
A similar test was performed with crystalline Compound A alone (Example 1), and a sufficient amount of material was added so that the concentration of compound would have been 200 μgA/mL, if all of the compound had dissolved.
The concentrations of Compound A obtained in these samples were used to determine the maximum dissolved concentration of Compound A (“MDC90”) and the area under the concentration-versus-time curve (“AUC90”) during the initial ninety minutes.
For these tests, a sufficient amount of material was added so that the concentration of Compound A would have been 200 μgA/mL, if all of the compound had dissolved. The results for the solid amorphous dispersion of Example 2 are included in Table 6, as are the results for tests with pure amorphous Compound A (Example 1) and crystalline Compound A (Example 1).

[2] = in vitro dissolution test in MFD solution, material added directly; conditions: MFD solution pH 6.5, 37° C., 200 μgA/mL dosed, no OPC pre-wetting
Method: An in vitro dissolution test was performed to determine the dissolution performance of the solid amorphous dispersion of Compound A relative to crystalline Compound A. For this test, a sufficient amount of material was added to a microcentrifuge test tube so that the concentration of Compound A would have been 200 μgA/mL, if all of the compound had dissolved. The test was run in duplicate. The tubes were placed in a 37° C. temperature-controlled chamber, and 1.8 mL PBS at pH 6.5 and 290 mOsm/kg, containing 7.3 mM sodium taurocholic acid and 1.4 mM of 1-palmitoyl-2-oleyl-sn-glycero-3-phosphocholine, was added to each respective tube. The samples were quickly mixed using a vortex mixer for about 60 seconds. The samples were centrifuged at 13,000 G at 37° C. for 1 minute. The resulting supernatant solution was then sampled and diluted 1:6 (by volume) with methanol and analyzed by high-performance liquid chromatography (HPLC). HPLC analysis was performed using a Waters C18 column. The mobile phase consisted of 65% 20 mM ammonium phosphate, adjusted to pH 3 with H3PO4, and 35% acetonitrile. UV absorbance was measured at 350 nm. The contents of each tube were mixed on the vortex mixer and allowed to stand undisturbed at 37° C. until the next sample was taken. Samples were collected at 4, 10, 20, 40, 90, and 1200 minutes. […]

pKa of Compound A = conditions: crystalline polymorphic Form IV
[3] = solubility in model fasted duodenal solution; conditions: fassif, pH 6.5, 37° C.
From the text: Compound A can exist in several different crystalline forms, as described in U.S. Provisional Application 60/624,665, filed on Nov. 2, 2004, which is incorporated herein by reference. Compound A in the crystalline form referred to as polymorphic Form IV has a pKa of about 4.2, and a solubility that is dependent on the pH of the solution, with the solubility being higher at low pH than at high pH. […] This pH-dependent solubility combined with a low in vivo rate of absorption results in low oral bioavailability, as well as significant subject-to-subject pharmacokinetic variability, for crystalline Compound A. Accordingly, there is a need to improve the bioavailability and reduce pharmacokinetic variability of Compound A relative to its crystalline form.

| Structure (SMILES) | AUC90 (area under the concentration-versus-time curve during the initial ninety minutes) ([1]; OPC model) | MDC90 (maximum dissolved concentration during the initial ninety minutes) [1] | AUC90 relative to crystalline Compound A ([1]; OPC model, MFD solution) | MDC90 relative to crystalline Compound A ([1]; OPC model, MFD solution) | AUC90 (area under the concentration-versus-time curve during the initial ninety minutes) [2] | MDC90 (maximum dissolved concentration during the initial ninety minutes) [2] | pKa (pKa of Compound A) | solubility [3] |
| --- | --- | --- | --- | --- | --- | --- | --- | --- |
| CNC(=O)c1ccccc1Sc1ccc2c(/C=C/c3ccccn3)n[nH]c2c1 [Example 1, 6-[2-(methylcarbamoyl)phenylsulfanyl]-3-E-[2-(pyridin-2-yl)ethenyl]indazole] | 1700 min * μgA/mL | 48 μgA/mL | 5.7 fold | 16 fold | – | – | – | – |
| CNC(=O)c1ccccc1Sc1ccc2c(/C=C/c3ccccn3)n[nH]c2c1 [Crystalline Compound A, 6-[2-(methylcarbamoyl)phenylsulfanyl]-3-E-[2-(pyridin-2-yl)ethenyl]indazole] | 300 min * μgA/mL | 3 μgA/mL | – | – | 200 min * μgA/mL | 3 μgA/mL | – | – |
| CNC(=O)c1ccccc1Sc1ccc2c(/C=C/c3ccccn3)n[nH]c2c1 [Compound A, 6-[2-(methylcarbamoyl)phenylsulfanyl]-3-E-[2-(pyridin-2-yl)ethenyl]indazole] | – | – | – | – | – | – | ~4.2 | ~4 µg/mL (≈ 10.3 µM) |

— US20080274192A1, “Pharmaceutical Compositions Comprising an Amorphous Form of a Vegf-R-Inhibitor” (PFIZER INC., priority 2005, published 2008)
